Assay results from patent publication US20260008746A1, “CATIONIC LIPID COMPOUND WITH HIGH EFFICIENCY, LOW TOXICITY AND STABLE EXPRESSION, AND COMPOSITION COMPRISNG SAME” (HANGZHOU TIANLONG PHARMACEUTICAL CO., LTD, priority 2023, published 2026).
Where “and” joins values, the source holds several entries; their conditions need not be identical. Identical values can stand only once.

How the values were obtained:
[1] = Determination of particle size and polydispersity index (PDI) of lipid nanoparticles by dynamic light scattering; assay type: physicochemical; settings: LNP formulation of named cationic lipid/DSPC/cholesterol/DMG-PEG2000 49:10:39.5:1.5; for Particle size (nm): 90° scattering angle, 25° C
Method: The cationic lipids listed in Table 1 were dissolved in ethanol with DSPC (AVT (Shanghai) Pharmaceutical Technology Co., Ltd.), cholesterol (AVT (Shanghai) Pharmaceutical Technology Co., Ltd.) and DMG-PEG2000 according to a molar ratio of 49:10:39.5:1.5, respectively, to prepare lipid solution in ethanol. The lipid solution in ethanol was quickly added to citrate buffer (pH=4 to 5) by ethanol injection method, and vortexed for 30 s for later use. eGFP-mRNA (from Shanghai Biohub International Trade Co., Ltd) or Fluc-mRNA (from Shanghai Biohub International Trade Co., Ltd) was diluted in citrate buffer (pH=4 to 5) to give an aqueous mRNA solution. A certain volume of liposome solution and mRNA aqueous solution were used to prepare liposomes at a weight ratio of total lipids to mRNA of 15:1. The mixtures were sonicated at 25° C. for 15 min (with an ultrasonic frequency of 40 kHz and an ultrasonic power of 800 W). The resulting liposomes were diluted to 10 times volume with PBS, and then ultrafiltered with a 300 KDa ultrafiltration tube to remove ethanol. Then the volume was fixed to a certain volume with PBS to give an LNP formulation encapsulating eGFP-mRNA or Fluc-mRNA using cationic lipid/DSPC/cholesterol/DMG-PEG2000 (49:10:39.5:1.5 in molar percentage).
The particle size and polydispersity index (PDI) were determined by dynamic light scattering using Malvern laser particle size analyzer.
10 μL of the liposome solution was weighed, diluted to 1 mL with RNase-free deionized water, and added to the sample pool. Each sample was measured in triplicate. The measurement conditions were: 90° scattering angle, and 25° C.

293T cells [2] = experiment: Fluorescent detection of Fluc-mRNA (cell transfection efficiency of LNP formulations); assay type: cell-based; settings: for Relative light unit (RLU): LNP formulation containing 0.3 μg Fluc-mRNA, 96-well plate, 24 hours; for Multiples (YK-101): RLU of YK-101 / RLU of named substance; for Multiples (YK-107): RLU of YK-107 / RLU of named substance; for Multiples (YK-108): RLU of YK-108 / RLU of named substance; for Ratio relative to SM-102: RLU of named substance / RLU of SM-102; for difference from SM-102 in Fluc-mRNA fluorescence (GraphPad Prism analysis): statistical comparison with SM-102
Method in brief: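 293T cells seeded at 10,000 per well, cultured overnight, then given LNP carrying 0.3 μg Fluc-mRNA (cationic:neutral:structured:PEG-lipid 49:10:39.5:1.5 molar). Incubated 24 h. Luciferase signal read with kit reagent on an IVIS imaging system.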

293T cells [3] = experiment: Cell survival rate determination (CCK-8); assay type: cell-based; settings: for Cell survival rate (%): LNP formulation containing 1.5 μg Fluc-mRNA, 24 hours, CCK-8, absorbance at 450 nm; for cell survival rate lower than that of YK-101: cell survival rate of YK-101 minus that of named substance; for cell survival rate lower than that of YK-107: cell survival rate of YK-107 minus that of named substance; for cell survival rate lower than that of YK-108: cell survival rate of YK-108 minus that of named substance
Method in brief: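 293T cells were seeded overnight at 10,000 cells/well in 96-well plates, then exposed for 24 h to LNP containing 1.5 μg Fluc-mRNA (cationic:neutral:structural:polymer-conjugated lipid, 49:10:39.5:1.5 molar) or to Lipofectamine 3000. Viability was read by CCK-8, 1 h incubation, absorbance 450 nm.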

BALB/C mice = experiment: In vivo imaging of Fluc-mRNA expression in mice delivered by LNP formulations; settings: for average radiation intensity, 6 h / average radiation intensity, 24 h / average radiation intensity, 48 h / average radiation intensity, 7 d: LNP containing 10 pg Fluc-mRNA, intramuscular, female BALB/C mice
Method in brief: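 Female BALB/C mice (4-6 weeks, 17-19 g) received LNP carrying […] Fluc-mRNA intramuscularly. Substrate was given intraperitoneally at 6 h, 24 h, 48 h and 7 d, and average radiance was imaged by IVIS 5 min later.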

[4] = highest multiple, time point not stated

Row | SMILES | PDI(%) [1] [%] | Particle size (nm) [1] [nm] | Relative light unit (RLU) (293T cells [2]) | Multiples (YK-101) (293T cells [2]) | Multiples (YK-107) (293T cells [2]) | Multiples (YK-108) (293T cells [2]) | Ratio relative to SM-102 (293T cells [2]) | Cell survival rate (%) (293T cells [3]) | cell survival rate lower than that of YK-101 (293T cells [3]) | cell survival rate lower than that of YK-107 (293T cells [3]) | cell survival rate lower than that of YK-108 (293T cells [3]) | average radiation intensity of YK-101, times that of named substance (BALB/C mice; 6 h) [times] | average radiation intensity of YK-107, times that of named substance (BALB/C mice; 6 h) [times] | average radiation intensity of YK-108, times that of named substance (BALB/C mice; 6 h) [times] | average radiation intensity of YK-101, times that of named substance (BALB/C mice; 24 h) [times] | average radiation intensity of YK-107, times that of named substance (BALB/C mice; 24 h) [times] | average radiation intensity of YK-108, times that of named substance (BALB/C mice; 24 h) [times] | average radiation intensity, 6 h (BALB/C mice; 6 h) | average radiation intensity, 24 h (BALB/C mice; 24 h) | average radiation intensity, 7 d (BALB/C mice; 7 d) | other results
1 | CCCCCCCCCCCOC(=O)CCCCCN(CCO)CCCCCCCC(=O)OC(CCCCCCCC)CCCCCCCC [SM-102, reference compound] | 17.4 | 142 | 1534210 | 13.25 | 14.58 | 16.07 | 1.00 | 68.17 | 21.95% | 22.28% | 21.69% | 2.2 | 2.3 | 2.9 | 9.0 | 11.1 | 11.9 | 689570 | 117750 | 5834 | average radiation intensity of YK-101, times that of named substance (BALB/C mice; 48 h): 5.8 times; average radiation intensity of YK-107, times that of named substance (BALB/C mice; 48 h): 7.1 times; average radiation intensity of YK-108, times that of named substance (BALB/C mice; 48 h): 7.2 times; average radiation intensity of YK-101, times that of named substance (BALB/C mice; 7 d): 2.1 times; average radiation intensity of YK-107, times that of named substance (BALB/C mice; 7 d): 2.3 times; average radiation intensity of YK-108, times that of named substance (BALB/C mice; 7 d): 2.4 times; average radiation intensity, 48 h (BALB/C mice; 48 h): 31900; expression amount of mRNA in mice of YK-108, times that of named substance (BALB/C mice; [4]): up to 11 times
2 | CCCCCCCCCCOC(=O)CCCN(CCCCCC(=O)OCC(CCCCCCCC)CCCCCCCC)CCOC(=O)CCCN(C)C [YK-126] | 15.1 | 260 | 219983 | 92.44 | 101.65 | 112.10 | 0.14 | 25.03 | 60% and 65.09% | 60% and 65.42% | 60% and 64.83% | 9.6 | 10.3 | 13.0 | 50.4 | 62.2 | 67.1 | 155160 | 20939 | 877 | cell transfection activity, times that of YK-125 (293T cells [2]): 1.3 times; fluorescence absorption value, times that of HHMA (293T cells [2]; RLU of named substance / RLU of HHMA): 0.11 times; fluorescence absorption value, times that of Lipofectamine 3000 (293T cells [2]; RLU of named substance / RLU of Lipofectamine 3000): 0.20 times; Fluc-mRNA expression signal intensity, times that of compound 21 (293T cells [2]; RLU of named substance / RLU of compound 21): 0.16 times; fluorescence absorption value, times that of compound 23 (293T cells [2]; RLU of named substance / RLU of compound 23): 0.17 times; difference from SM-102 in Fluc-mRNA fluorescence (GraphPad Prism analysis) (293T cells [2]): significant difference; cell survival rate lower than that of YK-122 (293T cells [3]): 54.12%; cell survival rate lower than that of YK-124 (293T cells [3]): 52.53%; average radiation intensity of YK-101, times that of named substance (BALB/C mice; 48 h): 27.9 times; average radiation intensity of YK-107, times that of named substance (BALB/C mice; 48 h): 34.0 times; average radiation intensity of YK-108, times that of named substance (BALB/C mice; 48 h): 34.6 times; average radiation intensity of YK-101, times that of named substance (BALB/C mice; 7 d): 13.9 times; average radiation intensity of YK-107, times that of named substance (BALB/C mice; 7 d): 15.2 times; average radiation intensity of YK-108, times that of named substance (BALB/C mice; 7 d): 16.2 times; average radiation intensity, 48 h (BALB/C mice; 48 h): 6656; expression amount of mRNA in mice of YK-101, times that of named substance (BALB/C mice; [4]): 50 times; expression amount of mRNA in mice of YK-107, times that of named substance (BALB/C mice; [4]): 62 times
3 | CCCCCCCCCC(=O)OCCCCN(CCO)CCCCCC(=O)OCC(CCCCCCCC)CCCCCCCC [YK-106] | 14.4 | 140 | 1628063 | 12.49 | 13.73 | 15.15 | 1.06 | 59.59 | 30.53% | 30.86% | 30.27% | 2.2 | 2.3 | 2.9 | 10.0 | 12.3 | 13.3 | 683840 | 105776 | 7052 | difference from SM-102 in Fluc-mRNA fluorescence (GraphPad Prism analysis) (293T cells [2]): no significant difference; average radiation intensity of YK-101, times that of named substance (BALB/C mice; 48 h): 5.6 times; average radiation intensity of YK-107, times that of named substance (BALB/C mice; 48 h): 6.9 times; average radiation intensity of YK-108, times that of named substance (BALB/C mice; 48 h): 7.0 times; average radiation intensity of YK-101, times that of named substance (BALB/C mice; 7 d): 1.7 times; average radiation intensity of YK-107, times that of named substance (BALB/C mice; 7 d): 1.9 times; average radiation intensity of YK-108, times that of named substance (BALB/C mice; 7 d): 2.0 times; average radiation intensity, 48 h (BALB/C mice; 48 h): 32940
4 | CCCCCCCCCCOC(=O)CCCN(CCO)CCCCCC(=O)OCC(CCCCCCCC)CCCCCCCC [YK-009, reference compound] | 12.1 | 205 | 5075954 | 4.01 | 4.41 | 4.86 | 3.31 | 73.57 | 16.55% | 16.88% | 16.29% |  |  |  |  |  |  | 1055200 | 770050 | 10665 | average radiation intensity, 48 h (BALB/C mice; 48 h): 132100
5 | CCCCCCCCCCCCC(O)CN(C)CCCCCC(=O)OCC(CCCCCC)CCCCCCCC (centres unmarked) [HHMA, reference compound] | 12.2 | 138 | 2047757 | 9.93 | 10.92 | 12.04 | 1.33 | 67.77 | 22.35% | 22.68% | 22.09% | 2.3 | 2.5 | 3.2 | 9.1 | 11.3 | 12.2 | 639280 | 115530 | 5235 | average radiation intensity of YK-101, times that of named substance (BALB/C mice; 48 h): 6.0 times; average radiation intensity of YK-107, times that of named substance (BALB/C mice; 48 h): 7.3 times; average radiation intensity of YK-108, times that of named substance (BALB/C mice; 48 h): 7.5 times; average radiation intensity of YK-101, times that of named substance (BALB/C mice; 7 d): 2.3 times; average radiation intensity of YK-107, times that of named substance (BALB/C mice; 7 d): 2.5 times; average radiation intensity of YK-108, times that of named substance (BALB/C mice; 7 d): 2.7 times
